# Earlier results in US20070116778A1 (priority 2005, published 2007).
# Assays:
# [1] = tested on: Neisseria gonorrhoae
# [2] = tested on: HIV; settings: human, in vivo
structure (smiles),measurement,setting,value
CCCCCCCCCCCC(=O)OCC(O)CO (stereo not drawn) [Monolaurin],effect on the pathogen,[1],dissolves the outer lipid membrane and interferes with transcriptinase production
same,patients with reduced viral load,[2],8 patients
same,side effects,[2],without any side effects
